Assay results as given in ChEMBL document CHEMBL5154737, “Semisynthesis and biological evaluation of (+)-sclerotiorin derivatives as antitumor agents for the treatment of hepatocellular carcinoma” (Eur J Med Chem, 2022).
Where a name gives a salt, the structure may show the parent alone.

How the values were obtained:
Bel-7402 [1] = test: Cytotoxicity against human Bel-7402 cells assessed as inhibition rate at 5 uM incubated for 72 hrs by MTT assay relative to control; assay type: functional; set-up: scale not given: the % may be the effect or the level left
[2] = Cytotoxicity against human HepG2 cells assessed as reduction in cell viability incubated for 72 hrs by MTT assay; assay type: toxicity, cell-based
ECa-109 cell line = test: Cytotoxicity against human Eca-109 cells assessed as reduction in cell viability incubated for 72 hrs by MTT assay; assay type: functional, cell-based; details: ECa-109, 72 h
Bel-7402 [3] = test: Cytotoxicity against human Bel-7402 cells assessed as reduction in cell viability incubated for 72 hrs by MTT assay; assay type: functional, cell-based; details: Bel-7402, 72 h
HeLa = test: Cytotoxicity against human HeLa cells assessed as reduction in cell viability incubated for 72 hrs by MTT assay; assay type: functional, cell-based
Bel-7402 [4] = test: cells; details: Homo sapiens, Bel-7402, 24 h, read-out: Activity
PANC-1 = test: Cytotoxicity against human PANC-1 cells assessed as reduction in cell viability incubated for 72 hrs by MTT assay; assay type: functional, cell-based; details: PANC-1, 72 h
[5] = Cytotoxicity against human Biu-87 cells assessed as reduction in cell viability incubated for 72 hrs by MTT assay; assay type: functional, cell-based; details: BIU87, 72 h

Compound	Activity (Bel-7402 [1]) [%]	also measured
CC[C@H](C)/C=C(C)/C=C/C1=CC2=C(Cl)C(=O)[C@](C)(OC(C)=O)C(=O)C2=CN1Cc1ccc(OC(F)(F)F)cc1	27.46	
CC[C@H](C)/C=C(C)/C=C/C1=CC2=C(Cl)C(=O)[C@](C)(O)C(=O)C2=CN1c1ccc(OC)c(OC)c1	5.75	
CC[C@H](C)/C=C(C)/C=C/C1=CC2=C(Cl)C(=O)[C@](C)(OC(C)=O)C(=O)C2=CN1c1ccc(C(F)(F)F)cc1	28.9	
CC[C@H](C)/C=C(C)/C=C/C1=CC2=C(Cl)C(=O)[C@](C)(OC(C)=O)C(=O)C2=CN1Cc1ccc(OC)cc1	6.58	
CC[C@H](C)/C=C(C)/C=C/C1=CC2=C(Cl)C(=O)[C@](C)(O)C(=O)C2=CN1Cc1ccc(OC)cc1	36.51	
CC[C@H](C)/C=C(C)/C=C/C1=CC2=C(Cl)C(=O)[C@](C)(OC(C)=O)C(=O)C2=CN1c1cc(OC)c(OC)c(OC)c1	9.61	
COc1cccc2c1C(=O)c1c(O)c3c(c(O)c1C2=O)C[C@@](O)(C(=O)CO)C[C@@H]3O[C@H]1C[C@H](N)[C@H](O)[C@H](C)O1 [DOXORUBICIN HYDROCHLORIDE]		IC50 at 72 h [2]: 450 nM; IC50 (ECa-109 cell line): 201 nM; IC50 (Bel-7402 [3]): 369 nM; IC50 (HeLa): 602 nM
N#CC(=C(/N)Sc1ccccc1N)/C(C#N)=C(\N)Sc1ccccc1N		viability at 20 µM (Bel-7402 [4]): 88.3%
CC[C@H](C)/C=C(C)/C=C/C1=CC2=C(Cl)C(=O)[C@](C)(O)C(=O)C2=CN1c1cc(OC)c(OC)c(OC)c1	11.27	
CC[C@H](C)/C=C(C)/C=C/C1=CC2=C(Cl)C(=O)[C@](C)(OC(C)=O)C(=O)C2=CN1c1ccc(OC)cc1	7.45	
CC[C@H](C)/C=C(C)/C=C/C1=CC2=C(Cl)C(=O)[C@](C)(O)C(=O)C2=CN1c1ccc(OC(F)(F)F)cc1	43.16	
CC[C@H](C)/C=C(C)/C=C/C1=CC2=C(Cl)C(=O)[C@](C)(OC(C)=O)C(=O)C2=CN1c1ccc(OC)c(OC)c1	8.16	
C#CCN1C=C2C(=O)[C@@](C)(OC(C)=O)C(=O)C(Cl)=C2C=C1/C=C/C(C)=C/[C@@H](C)CC	6.81	
CC[C@H](C)/C=C(C)/C=C/C1=CC2=C(Cl)C(=O)[C@](C)(O)C(=O)C2=CN1c1cc(OC)cc(OC)c1	11.14	
CC[C@H](C)/C=C(C)/C=C/C1=CC2=C(Cl)C(=O)[C@](C)(O)C(=O)C2=CN1CCc1cccc(C(F)(F)F)c1	45.76	
CC[C@H](C)/C=C(C)/C=C/C1=CC2=C(Cl)C(=O)[C@](C)(OC(C)=O)C(=O)C2=CN1Cc1ccc(C(F)(F)F)nc1	21.53	
CC[C@H](C)/C=C(C)/C=C/C1=CC2=C(Cl)C(=O)[C@](C)(OC(C)=O)C(=O)C2=CN1c1cc(OC)cc(OC)c1	7.94	
C=CCN1C=C2C(=O)[C@@](C)(OC(C)=O)C(=O)C(Cl)=C2C=C1/C=C/C(C)=C/[C@@H](C)CC	8.65	
CC[C@H](C)/C=C(C)/C=C/C1=CC2=C(Cl)C(=O)[C@](C)(O)C(=O)C2=CN1Cc1ccc(C)cc1	20.52	
CC[C@H](C)/C=C(C)/C=C/C1=CC2=C(Cl)C(=O)[C@](C)(OC(C)=O)C(=O)C2=CN1Cc1ccc(C(F)(F)F)cn1	21.49	
CC[C@H](C)/C=C(C)/C=C/C1=CC2=C(Cl)C(=O)[C@](C)(OC(C)=O)C(=O)C2=CN1Cc1ccc(C(F)(F)F)cc1	44.16	
CC[C@H](C)/C=C(C)/C=C/C1=CC2=C(Cl)C(=O)[C@](C)(O)C(=O)C2=CN1Cc1ccc(C(F)(F)F)nc1	12.09	
CC[C@H](C)/C=C(C)/C=C/C1=CC2=C(Cl)C(=O)[C@](C)(O)C(=O)C2=CN1Cc1ccc(C(F)(F)F)cc1	81.73	IC50 (PANC-1): 1440 nM; IC50 at 72 h [2]: 3360 nM; IC50 [5]: 3100 nM; IC50 (ECa-109 cell line): 1480 nM; IC50 (Bel-7402 [3]): 1450 nM; IC50 (HeLa): 2400 nM
CC[C@H](C)/C=C(C)/C=C/C1=CC2=C(Cl)C(=O)[C@](C)(OC(C)=O)C(=O)C2=CN1c1ccc(OC(F)(F)F)cc1	22.81	
CC[C@H](C)/C=C(C)/C=C/C1=CC2=C(Cl)C(=O)[C@](C)(OC(C)=O)C(=O)C2=CN1CCc1cccc(C(F)(F)F)c1	35.93	
CC[C@H](C)/C=C(C)/C=C/C1=CC2=C(Cl)C(=O)[C@](C)(OC(C)=O)C(=O)C2=CN1Cc1ccc(C)cc1	16.2	
CC[C@H](C)/C=C(C)/C=C/C1=CC2=C(Cl)C(=O)[C@](C)(O)C(=O)C2=CN1Cc1ccc(C(F)(F)F)cn1	10.55	
CC[C@H](C)/C=C(C)/C=C/C1=CC2=C(Cl)C(=O)[C@](C)(O)C(=O)C2=CN1c1ccc(C(F)(F)F)cc1	63.16	
